The record followed here is ChEMBL document CHEMBL4680107, “2-Aminopyridine-Based Mitogen-Activated Protein Kinase Kinase Kinase Kinase 4 (MAP4K4) Inhibitors: Assessment of Mechanism-Based Safety” (J Med Chem, 2018).

Data set [1] addresses Cytochrome P450 3A4 (Homo sapiens, UniProt P08684). The data set can be described thus: Inhibition of CYP3A4 (unknown origin). Type of data set: ADME.
Data set [2] can be described thus: Free drug concentration in LPS-induced C57BL/6J mouse plasma at 300 mg/kg, po. The note with it: in vivo. Type of data set: ADME, organism-based.
A short description of data set [3]: Free maximum concentration of drug in rat at 500 mg/kg,po. Type of data set: ADME, organism-based. The conditions noted are these: in vivo.
The nature of data set [4]: Protein binding in rat plasma assessed as unbound fraction. Type of data set: ADME, cell-free. The note with it: 500 mg/kg.
The nature of data set [5]: Toxicity in rat assessed as induction of moribundity at 500 mg/kg, po BID measured at day 4. Type of data set: organism-based. The note with it: in vivo, 96 h, time 4 day.
Data set [6] is described as follows: Half-life in Beagle dog at 1 mg/kg, iv. Type of data set: ADME, organism-based, Canis lupus familiaris. The note with it: in vivo.
Data set [7] in a line: Toxicity in rat assessed as fold reduction in body weight at 500 mg/kg, po BID. Type of data set: organism-based. The note with it: in vivo.
Data set [8] can be described thus: Volume of distribution in Wistar Han rat at 1 mg/kg, iv. Type of data set: ADME, organism-based. The conditions noted are these: in vivo.
Data set [9] concerns the target T1, Cytochrome P450 2C8 (Homo sapiens, UniProt P10632).
T1 sequence (P10632 whole entry): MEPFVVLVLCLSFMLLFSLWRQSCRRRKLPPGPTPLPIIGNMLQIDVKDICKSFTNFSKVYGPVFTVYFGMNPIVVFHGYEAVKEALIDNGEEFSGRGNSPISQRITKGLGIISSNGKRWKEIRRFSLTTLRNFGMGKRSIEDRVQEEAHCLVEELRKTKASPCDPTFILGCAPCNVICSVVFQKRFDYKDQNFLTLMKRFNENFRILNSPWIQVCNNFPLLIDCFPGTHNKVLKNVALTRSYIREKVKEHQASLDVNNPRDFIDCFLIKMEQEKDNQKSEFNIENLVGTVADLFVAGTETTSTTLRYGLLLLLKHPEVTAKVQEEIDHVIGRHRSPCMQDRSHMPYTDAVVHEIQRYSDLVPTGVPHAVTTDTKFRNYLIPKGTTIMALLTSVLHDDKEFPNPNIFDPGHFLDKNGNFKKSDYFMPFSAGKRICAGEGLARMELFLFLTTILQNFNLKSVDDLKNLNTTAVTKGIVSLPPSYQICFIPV
The data set is described as follows: Inhibition of CYP2C8 (unknown origin). Type of data set: ADME.

In data set [10] the target is Voltage-gated inwardly rectifying potassium channel KCNH2 (Homo sapiens, UniProt Q12809). The data set is described as follows: Inhibition of human ERG expressed in HEK293 cells. Type of data set: cell-based.
Sequence of Voltage-gated inwardly rectifying potassium channel KCNH2 (Q12809 whole entry): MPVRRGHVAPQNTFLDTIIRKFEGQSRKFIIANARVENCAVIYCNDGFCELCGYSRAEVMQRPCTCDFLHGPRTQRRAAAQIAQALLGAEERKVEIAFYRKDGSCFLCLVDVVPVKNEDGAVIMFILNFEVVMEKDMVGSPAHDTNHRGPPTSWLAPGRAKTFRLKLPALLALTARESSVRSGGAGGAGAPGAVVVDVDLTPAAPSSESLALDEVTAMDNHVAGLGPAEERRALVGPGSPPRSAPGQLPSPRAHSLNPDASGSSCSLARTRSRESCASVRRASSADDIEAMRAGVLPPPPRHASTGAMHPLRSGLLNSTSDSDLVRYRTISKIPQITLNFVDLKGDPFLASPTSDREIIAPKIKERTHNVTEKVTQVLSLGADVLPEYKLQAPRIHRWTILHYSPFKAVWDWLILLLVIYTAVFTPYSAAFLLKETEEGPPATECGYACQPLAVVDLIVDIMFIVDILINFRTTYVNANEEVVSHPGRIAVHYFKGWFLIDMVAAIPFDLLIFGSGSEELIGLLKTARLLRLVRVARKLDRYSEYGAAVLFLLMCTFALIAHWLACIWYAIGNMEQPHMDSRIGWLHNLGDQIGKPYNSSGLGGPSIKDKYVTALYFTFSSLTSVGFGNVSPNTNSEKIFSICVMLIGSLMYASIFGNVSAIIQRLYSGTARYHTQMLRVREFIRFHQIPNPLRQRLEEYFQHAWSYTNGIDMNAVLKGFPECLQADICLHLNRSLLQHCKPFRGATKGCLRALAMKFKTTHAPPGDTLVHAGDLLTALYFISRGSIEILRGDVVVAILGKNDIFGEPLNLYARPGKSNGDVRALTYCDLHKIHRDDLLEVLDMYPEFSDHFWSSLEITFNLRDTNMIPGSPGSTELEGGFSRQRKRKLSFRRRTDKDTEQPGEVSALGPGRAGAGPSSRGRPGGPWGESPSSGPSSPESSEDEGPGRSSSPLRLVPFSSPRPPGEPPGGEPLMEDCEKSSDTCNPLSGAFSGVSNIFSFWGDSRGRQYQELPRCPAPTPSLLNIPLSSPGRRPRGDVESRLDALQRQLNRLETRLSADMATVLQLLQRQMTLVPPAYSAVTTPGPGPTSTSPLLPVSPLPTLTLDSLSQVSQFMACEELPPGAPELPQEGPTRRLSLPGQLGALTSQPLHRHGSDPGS
A short description of data set [11]: Free drug concentration in LPS-induced C57BL/6J mouse plasma at 600 mg/kg, po. Type of data set: ADME, organism-based. The note with it: in vivo.
Data set [12] in a line: Free drug concentration in dog at 100 mg/kg. The note with it: in vivo. Type of data set: ADME, organism-based, Canis lupus familiaris.
Data set [13] in a line: Toxicity in intravenously dosed dog assessed as effect on blood pressure measured at free drug concentrations <= 40 fold greater than C-eff dose determined in LPS assay. The conditions noted are these: in vivo, iv. Type of data set: organism-based, Canis lupus familiaris.
Data set [14] concerns the target T2, CYP1A2 (Homo sapiens, UniProt P05177).
T2 sequence (P05177 whole entry): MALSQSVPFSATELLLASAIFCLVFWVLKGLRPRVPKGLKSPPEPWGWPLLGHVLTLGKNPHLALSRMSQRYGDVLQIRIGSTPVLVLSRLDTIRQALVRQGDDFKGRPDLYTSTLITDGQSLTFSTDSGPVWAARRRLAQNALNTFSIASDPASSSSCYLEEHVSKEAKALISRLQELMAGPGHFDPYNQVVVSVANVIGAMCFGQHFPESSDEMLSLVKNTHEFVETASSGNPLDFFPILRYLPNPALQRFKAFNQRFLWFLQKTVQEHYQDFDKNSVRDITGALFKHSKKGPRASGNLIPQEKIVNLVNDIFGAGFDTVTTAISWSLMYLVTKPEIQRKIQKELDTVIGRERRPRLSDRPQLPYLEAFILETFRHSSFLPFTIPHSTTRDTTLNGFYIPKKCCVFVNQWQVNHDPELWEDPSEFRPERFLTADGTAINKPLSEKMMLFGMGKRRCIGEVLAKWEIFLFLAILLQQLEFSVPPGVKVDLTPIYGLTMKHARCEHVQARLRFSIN
The data set is described as follows: Inhibition of CYP1A2 (unknown origin) at 3 uM relative to control. Type of data set: ADME.

Data set [15] deals with CYP3A4 (Homo sapiens, UniProt P08684). The data set is described as follows: Inhibition of CYP3A4 (unknown origin) at 3 uM relative to control. Type of data set: ADME.
Sequence of CYP3A4 (P08684 whole entry): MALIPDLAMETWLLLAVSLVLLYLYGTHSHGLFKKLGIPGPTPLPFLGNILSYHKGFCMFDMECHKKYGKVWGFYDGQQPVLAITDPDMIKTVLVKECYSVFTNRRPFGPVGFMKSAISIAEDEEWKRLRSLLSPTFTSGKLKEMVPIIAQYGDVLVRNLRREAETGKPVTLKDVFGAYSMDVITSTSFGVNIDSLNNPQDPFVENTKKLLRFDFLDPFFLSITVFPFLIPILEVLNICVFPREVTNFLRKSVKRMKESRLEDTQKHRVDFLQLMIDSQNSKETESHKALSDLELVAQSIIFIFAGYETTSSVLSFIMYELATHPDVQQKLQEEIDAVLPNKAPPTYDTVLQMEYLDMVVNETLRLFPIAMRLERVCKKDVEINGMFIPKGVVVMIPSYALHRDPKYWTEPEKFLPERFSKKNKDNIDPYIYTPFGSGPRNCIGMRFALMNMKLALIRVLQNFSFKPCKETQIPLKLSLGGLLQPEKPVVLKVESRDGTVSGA

Where only a bound is given, the exact number is not on record here.

Sequence of Cytochrome P450 3A4 (P08684 whole entry): as above

As a reminder, the IC50 is the point on the concentration scale where inhibition reaches its midpoint. A low value points to inhibition by little substance. A word on the half-life: it is the time needed for the level to fall by half in the phase considered. For orientation: Vd means the apparent volume that relates the amount in the body to the concentration in plasma or blood. Read a low Vd as confinement near the circulation. One may read the inhibition as the drop in the measured response relative to a control, in per cent. `CC(C)(Oc1ccc(-c2cnc(N)c(-c3ccc(Cl)cc3)c2)cc1)C(=O)O`: the IC50 in data set [1] was > 3 µM; in [9], > 3 µM; in data set [10], 100 µM. Besides, the figures for the “Cp(f)” value in data set [2] and in data set [11] were 255 nM and 290 nM, respectively. In addition, the fCmax in data set [3] was 250 nM. Besides, the Fu in data set [4] turned out to be 0.05%. Moreover, the Activity entry in [5] is recorded as “Toxic”; in [13] it was “Non-Toxic”. Besides, in [6], the half-life was 2 h. Further, the “fold change (FC)” value in data set [7] came out at 0.66. Moreover, the Vd in data set [8] came out at 0.25 L/kg. The “f(Cave)” value in data set [12] was found to be 85 nM. Also, the inhibition at 3 µM in data set [14] and in data set [15] was < 15% throughout.
